Experimental data: patent publication US20250059174A1, “Pharmaceutical Compounds and Compositions as C-Kit Kinase Inhibitors” (Enanta Pharmaceuticals, Inc., priority 2023, published 2025)

How the values were obtained:
M-07e cells = test: M-07e cellular assay (SCF-mediated cell proliferation); type: cell-based; conditions: Homo sapiens, 72 hours, CellTiter Glo
Procedure, shortened: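 Readout came from CellTiter Glo after 72 h of compound treatment in SCF (EC90)-stimulated, pre-starved M-07e cells at 37 °C.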

[1] = molecular target: Recombinant human c-KIT kinase (Homo sapiens (Human), UniProt P10721); test: c-KIT kinase chemiluminescence assay (ADP-Glo); type: biochemical; conditions: ATP 50 μM
Recombinant human c-KIT kinase, sequence (P10721 26-976): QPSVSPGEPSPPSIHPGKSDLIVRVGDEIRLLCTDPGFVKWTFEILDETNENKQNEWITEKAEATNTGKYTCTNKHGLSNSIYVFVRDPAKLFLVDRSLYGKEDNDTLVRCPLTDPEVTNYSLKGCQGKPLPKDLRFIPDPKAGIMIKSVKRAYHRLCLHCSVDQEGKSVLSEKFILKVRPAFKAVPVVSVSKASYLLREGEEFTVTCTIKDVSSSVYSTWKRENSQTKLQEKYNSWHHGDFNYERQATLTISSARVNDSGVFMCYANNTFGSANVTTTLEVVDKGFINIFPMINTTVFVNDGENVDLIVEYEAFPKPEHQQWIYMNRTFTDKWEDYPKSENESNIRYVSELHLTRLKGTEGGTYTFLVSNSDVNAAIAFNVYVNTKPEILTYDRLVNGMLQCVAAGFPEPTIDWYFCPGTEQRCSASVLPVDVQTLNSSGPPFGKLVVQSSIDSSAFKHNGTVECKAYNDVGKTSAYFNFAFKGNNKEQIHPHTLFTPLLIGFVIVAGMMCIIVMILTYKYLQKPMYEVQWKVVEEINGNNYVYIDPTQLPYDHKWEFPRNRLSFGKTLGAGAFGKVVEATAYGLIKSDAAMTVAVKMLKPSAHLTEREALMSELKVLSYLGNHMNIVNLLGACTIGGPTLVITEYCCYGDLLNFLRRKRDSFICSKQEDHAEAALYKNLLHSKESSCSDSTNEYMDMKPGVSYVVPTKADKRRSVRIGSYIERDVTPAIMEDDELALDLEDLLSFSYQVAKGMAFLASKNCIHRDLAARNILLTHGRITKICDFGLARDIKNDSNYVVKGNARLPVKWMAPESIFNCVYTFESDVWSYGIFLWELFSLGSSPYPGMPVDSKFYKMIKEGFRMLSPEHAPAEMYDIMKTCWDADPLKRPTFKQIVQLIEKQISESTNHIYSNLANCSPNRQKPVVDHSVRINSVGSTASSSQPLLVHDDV
Procedure, shortened: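 ADP formed by c-KIT on polyEY over 2 h at RT (after 30 min enzyme preincubation; Tris pH 7.5, MgCl2, BSA, DTT buffer) was detected by ADP-Glo luminescence. IC50 and Hill slope were fitted to control-normalized activity across compound concentrations.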

Row | SMILES | EC50 (M-07e cells) | IC50 [1]
1 | Cc1ccc(-c2noc([C@H]3C[C@@H](OC(F)(F)F)C3)n2)cc1NC(=O)c1cnn2ccc(N3CC4(CCN(CC(F)(F)F)C4)C3)cc12 [Example 252] | 0.1 to 1 µM | 0.1 to 1 µM
2 | Cc1ccc(-c2noc([C@H]3C[C@@H](OC(F)F)C3)n2)cc1NC(=O)c1cnn2ccc(N3CC4(CCN(CC(F)(F)F)C4)C3)cc12 [Example 253] | 0.1 to 1 µM | 0.1 to 1 µM
3 | Cc1ccc(-c2noc([C@H]3C[C@@H](OC(F)F)C3(C)C)n2)cc1NC(=O)c1cnn2ccc(N3CC4(CCN(CC(F)(F)F)C4)C3)cc12 [Example 254] | 0.1 to 1 µM | 0.1 to 1 µM
4 | Cc1ccc(-c2noc([C@H]3C[C@@H](OC(F)F)C3(C)C)n2)cc1NC(=O)c1cnn2ccc(N3CC4(CCN(CC(F)F)C4)C3)cc12 [Example 255] | 0.1 to 1 µM | < 0.1 µM
5 | Cc1ccc(-c2noc([C@H]3C[C@@H](OC(F)(F)F)C3)n2)cc1NC(=O)c1cnn2ccc(N3CC4CC(C3)O4)cc12 [Example 256] | < 0.1 µM | < 0.1 µM
6 | Cc1ccc(-c2noc([C@H]3C[C@@H](OC(F)F)C3)n2)cc1NC(=O)c1cnn2ccc(N3CC4CC(C3)O4)cc12 [Example 257] | 0.1 to 1 µM | < 0.1 µM
7 | Cc1ccc(-c2noc([C@H]3C[C@@H](OC(F)(F)F)C3)n2)cc1NC(=O)c1cnn2ccc(N3CC4(CN(C(=O)OC(C)(C)C)C4)C3)cc12 [Example 258] | 0.1 to 1 µM | 0.1 to 1 µM
8 | Cc1ccc(-c2noc([C@H]3C[C@@H](OC(F)(F)F)C3)n2)cc1NC(=O)c1cnn2ccc(N3CC4(CN(CC(F)F)C4)C3)cc12 [Example 259] | < 0.1 µM | < 0.1 µM
9 | Cc1ccc(-c2noc([C@H]3C[C@@H](OC(F)(F)F)C3)n2)cc1NC(=O)c1cnn2ccc(N3CC4(CNC4)C3)cc12 [Example 260] | 0.1 to 1 µM | < 0.1 µM
10 | Cc1ccc(-c2noc([C@H]3C[C@@H]3F)n2)nc1NC(=O)c1cnn2ccc(N3CC4(COC4)C3)cc12 [Example 261] | 0.1 to 1 µM | 0.1 to 1 µM
11 | O=C(Nc1cc(-c2noc([C@H]3C[C@@H]3F)n2)ccc1Cl)c1cnn2ccc(N3CC4(COC4)C3)cc12 [Example 262] | < 0.1 µM | < 0.1 µM
12 | Cc1ccc(-c2noc([C@H]3C[C@@H](OC(F)(F)F)C3)n2)cc1NC(=O)c1cnn2cc(-c3cn(C(F)F)nn3)ccc12 [Example 263] | < 0.1 µM | < 0.1 µM
13 | O=C(Nc1cc(-c2noc([C@H]3C[C@@H](OC(F)(F)F)C3)n2)ccc1Cl)c1cnn2ccc(N3CC4(COC4)C3)cc12 [Example 264] | < 0.1 µM | < 0.1 µM
14 | O=C(Nc1cc(-c2noc([C@H]3C[C@@H](OC(F)F)C3)n2)ccc1Cl)c1cnn2ccc(N3CC4(COC4)C3)cc12 [Example 265] | < 0.1 µM | < 0.1 µM
15 | Cc1ccc(-c2noc([C@H]3C[C@@H](OC(F)F)C3)n2)nc1NC(=O)c1cnn2ccc(N3CC4(COC4)C3)cc12 [Example 266] | 0.1 to 1 µM | 0.1 to 1 µM
16 | Cc1ccc(-c2noc([C@H]3C[C@@H](OC(F)(F)F)C3)n2)nc1NC(=O)c1cnn2ccc(N3CC4(COC4)C3)cc12 [Example 267] | 0.1 to 1 µM | 0.1 to 1 µM
17 | Cc1ncc(-c2noc([C@H]3C[C@@H]3F)n2)cc1NC(=O)c1cnn2ccc(N3CC4(COC4)C3)cc12 [Example 268] | 0.1 to 1 µM | 0.1 to 1 µM
18 | Cc1ncc(-c2noc([C@H]3C[C@@H](OC(F)F)C3)n2)cc1NC(=O)c1cnn2ccc(N3CC4(COC4)C3)cc12 [Example 269] | < 0.1 µM | 0.1 to 1 µM
19 | Cc1ncc(-c2noc([C@H]3C[C@@H](OC(F)(F)F)C3)n2)cc1NC(=O)c1cnn2ccc(N3CC4(COC4)C3)cc12 [Example 270] | < 0.1 µM | 0.1 to 1 µM
20 | Cc1ccc(-c2noc(C34CC(OC(F)F)(C3)C4)n2)cc1NC(=O)c1cnn2ccc(N3CC4(COC4)C3)cc12 [Example 271] | < 0.1 µM | < 0.1 µM
21 | COC12CC(c3nc(-c4ccc(C)c(NC(=O)c5cnn6ccc(N7CC8(COC8)C7)cc56)c4)no3)(C1)C2 [Example 272] | < 0.1 µM | < 0.1 µM
22 | CO[C@H]1C[C@@H](c2nc(-c3ccc(C)c(NC(=O)c4cnn5ccc(N6CC7(COC7)C6)cc45)c3)no2)C1 [Example 273] | < 0.1 µM | 0.1 to 1 µM
23 | CO[C@H]1C[C@H](c2nc(-c3ccc(C)c(NC(=O)c4cnn5ccc(N6CC7(COC7)C6)cc45)c3)no2)C1 [Example 274] | < 0.1 µM | 0.1 to 1 µM
24 | Cc1ccc(-c2noc([C@H]3C[C@@H](OC(F)F)C3)n2)cc1NC(=O)c1cnn2cc(-c3cn(C(F)F)nn3)ccc12 [Example 275] | < 0.1 µM | < 0.1 µM
25 | Cc1ccc(-c2noc([C@H]3C[C@H]3C(F)F)n2)cc1NC(=O)c1cnn2ccc(N3CC4(COC4)C3)cc12 [Example 276] | < 0.1 µM | < 0.1 µM

Row | SMILES | EC50 (M-07e cells) | IC50 [1]
26 | Cc1ccc(-c2noc([C@@H]3C[C@@H]3C(F)F)n2)cc1NC(=O)c1cnn2ccc(N3CC4(COC4)C3)cc12 [Example 277] | < 0.1 µM | < 0.1 µM
27 | Cc1ccc(-c2noc([C@H]3C[C@@H]3C(F)F)n2)cc1NC(=O)c1cnn2ccc(N3CC4(COC4)C3)cc12 [Example 278] | < 0.1 µM | < 0.1 µM
28 | Cc1ccc(-c2noc([C@@H]3C[C@@H]4[C@H](C3)C4(F)F)n2)cc1NC(=O)c1cnn2ccc(N3CC4(COC4)C3)cc12 [Example 279] | < 0.1 µM | < 0.1 µM
29 | Cc1ccc(-c2noc([C@H]3C[C@@H]4[C@H](C3)C4(F)F)n2)cc1NC(=O)c1cnn2ccc(N3CC4(COC4)C3)cc12 [Example 280] | < 0.1 µM | < 0.1 µM
30 | Cc1ccc(-c2noc([C@@H]3C[C@H]3C(F)F)n2)cc1NC(=O)c1cnn2ccc(N3CC4(COC4)C3)cc12 [Example 281-1] | < 0.1 µM | < 0.1 µM
31 | Cc1ccc(-c2noc(C3CC4(C3)CC(F)(F)C4)n2)cc1NC(=O)c1cnn2ccc(N3CC4(COC4)C3)cc12 [Example 281-2] | < 0.1 µM | < 0.1 µM
32 | [2H]C([2H])([2H])c1ccc(-c2noc([C@H]3C[C@@H]3F)n2)cc1NC(=O)c1cnn2ccc(N3CC4(COC4)C3)cc12 [Example 281-3] | < 0.1 µM | < 0.1 µM
33 | [2H]C([2H])([2H])c1ccc(-c2noc([C@H]3C[C@@H](OC(F)F)C3)n2)cc1NC(=O)c1cnn2ccc(N3CC4(COC4)C3)cc12 [Example 281-4] | < 0.1 µM | < 0.1 µM
34 | [2H]C([2H])([2H])c1ccc(-c2noc([C@H]3C[C@@H]3C(F)F)n2)cc1NC(=O)c1cnn2ccc(N3CC4(COC4)C3)cc12 [Example 281-5] | < 0.1 µM | < 0.1 µM
35 | Cc1ccc(-c2noc(C34COC(C)(C3)C4)n2)cc1NC(=O)c1cnn2ccc(N3CC4(COC4)C3)cc12 [Example 281-6] | < 0.1 µM | 0.1 to 1 µM
36 | Cc1ccc(-c2noc([C@H]3CC3(F)F)n2)cc1NC(=O)c1cnn2ccc(N3CC4(COC4)C3)cc12 [Example 281-7] | < 0.1 µM | 0.1 to 1 µM
37 | Cc1ccc(-c2noc(C3CN(CC(F)(F)F)C3)n2)cc1NC(=O)c1cnn2ccc(N3CC4(COC4)C3)cc12 [Example 281-8] | < 0.1 µM | < 0.1 µM
38 | Cc1ncc(-c2noc([C@H]3CN(CC(F)(F)F)[C@@H]3C)n2)cc1NC(=O)c1cnn2ccc(N3CC4(C3)CC(O)(C(F)F)C4)cc12 [Example 281-9] | 0.1 to 1 µM | 0.1 to 1 µM
39 | Cc1ncc(-c2noc([C@H]3CN(C(=O)C(C)(F)F)[C@@H]3C)n2)cc1NC(=O)c1cnn2ccc(N3CC4(C3)CC(O)(C(F)F)C4)cc12 [Example 281-10] | 0.1 to 1 µM | 0.1 to 1 µM
40 | Cc1ncc(-c2noc([C@@H]3CN(C(=O)C4(F)CC4)[C@H]3C)n2)cc1NC(=O)c1cnn2ccc(N3CC4(C3)CC(O)(C(F)F)C4)cc12 [Example 281-11] | 0.1 to 1 µM | 0.1 to 1 µM
41 | Cc1ncc(-c2noc([C@@H]3CN(CC(F)(F)F)[C@H]3C)n2)cc1NC(=O)c1cnn2ccc(N3CC4(C3)CC(O)(C(F)F)C4)cc12 [Example 281-12] | 0.1 to 1 µM | < 0.1 µM
42 | Cc1ncc(-c2noc([C@@H]3CN(C(=O)C(C)(F)F)[C@H]3C)n2)cc1NC(=O)c1cnn2ccc(N3CC4(C3)CC(O)(C(F)F)C4)cc12 [Example 281-13] | 0.1 to 1 µM | 0.1 to 1 µM
43 | COC(=O)N1C[C@H](c2nc(-c3cnc(C)c(NC(=O)c4cnn5ccc(N6CC7(C6)CC(O)(C(F)F)C7)cc45)c3)no2)[C@H]1C [Example 281-14] | 0.1 to 1 µM | 0.1 to 1 µM
44 | Cc1ncc(-c2noc([C@H]3CN(C(=O)C4(F)CC4)[C@@H]3C)n2)cc1NC(=O)c1cnn2ccc(N3CC4(C3)CC(O)(C(F)F)C4)cc12 [Example 281-15] | 0.1 to 1 µM | 0.1 to 1 µM
45 | Cc1ncc(-c2noc([C@H]3CC34CC4)n2)cc1NC(=O)c1cnn2ccc(N3CC4(C3)CC(O)(C(F)F)C4)cc12 [Example 281-16] | < 0.1 µM | < 0.1 µM
46 | COC(=O)N1C[C@@H](c2nc(-c3cnc(C)c(NC(=O)c4cnn5ccc(N6CC7(C6)CC(O)(C(F)F)C7)cc45)c3)no2)[C@@H]1C [Example 281-17] | < 0.1 µM | 0.1 to 1 µM
47 | Cc1cc(F)c(-c2noc([C@H]3C[C@@H]3F)n2)cc1NC(=O)c1cnn2ccc(N3CC4(C3)CC(O)(C(F)F)C4)cc12 [Example 281-18] | < 0.1 µM | < 0.1 µM
48 | CC(=O)N1CC(c2nc(-c3ccc(C)c(NC(=O)c4cnn5ccc(N6CC7(COC7)C6)cc45)c3)no2)C1 [Example 281-19] | > 1 µM | 0.1 to 1 µM
49 | Cc1ccc(-c2noc([C@H]3C[C@@H](OC(F)F)C3)n2)cc1NC(=O)c1cnn2ccc(N3CC4(C3)CC(O)(C(F)F)C4)cc12 [Example 281-20] | < 0.1 µM | < 0.1 µM
